Test results: the supplement of paper PMC8671470

What was measured:
THP-1 = assay: cell viability (% survival relative to DMSO control, bortezomib = 0%); higher = less cytotoxic; settings: 72 h
How it was run: (§1)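 In 384-well plates pre-printed with compounds at 1, 10, 100, 1000 or 10000 nM, duplicate wells received cells from 10 AML and 5 CML lines at densities within the linear growth range. The plates stayed at 37 °C with 5% CO2 for 72 h before CellTiter-Glo luminescence was recorded. Each entry is averaged percent survival. Scaling placed vehicle at 100% and a 10 µM positive control at 0%.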

LAMA-84 = assay: as above; settings: 72 h
How it was run: as §1

Row | Compound | cell viability (THP-1; 1 nM) | cell viability (THP-1; 10 nM) | cell viability (THP-1; 100 nM) | cell viability (THP-1; 1000 nM) | cell viability (THP-1; 10000 nM) | cell viability (LAMA-84; 1 nM) | cell viability (LAMA-84; 10 nM) | cell viability (LAMA-84; 100 nM) | cell viability (LAMA-84; 1000 nM) | cell viability (LAMA-84; 10000 nM)
1 | CC12CCC(O)CC1CCC1C2CCC2(C)C(C3=CC(=O)OC3)CCC12O (stereo not given) [Digitoxigenin] | 108% | 104% | 77% | 18.9% | -0.987% | 109% | 105% | 84.6% | 6.05% | 0.855%
2 | C[C@H]1O[C@@H](O[C@H]2[C@@H](O)C[C@H](O[C@H]3[C@@H](O)C[C@H](O[C@H]4CC[C@@]5(C)[C@H](CC[C@@H]6[C@@H]5C[C@@H](O)[C@]5(C)[C@@H](C7=CC(=O)OC7)CC[C@]65O)C4)O[C@@H]3C)O[C@@H]2C)C[C@H](O)[C@@H]1O [Digoxin] | 85.8% | 95.6% | 32.6% | 0.766% | -0.172% | 92.3% | 115% | 20.6% | 2.17% | 2.06%
3 | O=c1c2ccccc2[se]n1-c1ccccc1 [Ebselen] | 94.9% | 95.1% | 93% | 98.7% | 81.8% | 93.3% | 97.1% | 95.5% | 92.1% | 101%
4 | Clc1ccc(COC(Cn2ccnc2)c2ccc(Cl)cc2Cl)cc1 (stereo not given) [Econazole] | 102% | 94.9% | 95.7% | 87.9% | 62% | 103% | 95.5% | 91.8% | 92% | 58.1%
5 | C#Cc1cnc(O)nc1O [Eniluracil] | 97.4% | 102% | 109% | 110% | 102% | 100% | 102% | 107% | 109% | 104%
6 | CC(/C=C1\SC(=S)N(CC(=O)O)C1=O)=C\c1ccccc1 [Epalrestat] | 101% | 95.6% | 115% | 102% | 103% | 104% | 99.8% | 82.6% | 104% | 99.8%
7 | CCOC(=O)[C@@]1(CCCCCCOc2ccc(Cl)cc2)CO1 [Etomoxir] | 98.3% | 105% | 97.3% | 96.4% | 102% | 94.9% | 110% | 106% | 58.5% | 62.7%
8 | Cc1c(-c2ccccc2)oc2c(C(=O)OCCN3CCCCC3)cccc2c1=O.Cl [Flavoxate] | 93.5% | 97.7% | 93.5% | 96.6% | 109% | 98% | 102% | 97.6% | 101% | 101%
9 | O=C(O)CCc1ccc(NCc2cccc(Oc3ccccc3)c2)cc1 [GW9508] | 95.1% | 101% | 104% | 111% | 111% | 96.8% | 98.6% | 108% | 93.2% | 106%
10 | c1ccc2c(c1)OCC(=C1NCCN1)O2 [Idazoxan] | 104% | 107% | 83.3% | 91.4% | 103% | 101% | 98.4% | 89% | 96.5% | 93%
11 | C[C@]12O[C@H](C[C@]1(O)CO)n1c3ccccc3c3c4c(c5c6ccccc6n2c5c31)CNC4=O [Lestaurtinib] | 94.4% | 105% | 87.2% | 46% | 0.505% | 99.6% | 94.4% | 34.2% | 25% | 0.148%
12 | O=C(O)c1nn(Cc2ccc(Cl)cc2Cl)c2ccccc12 [Lonidamine] | 107% | 97% | 102% | 99.3% | 101% | 99.1% | 94.6% | 108% | 99.9% | 102%
13 | C1CCc2nnc(C34CC5CC(CC(C5)C3)C4)n2CC1 [MERCK-544] | 102% | 107% | 93.7% | 102% | 91.1% | 102% | 94.5% | 91.9% | 92.9% | 101%
14 | CC(Cc1ccc(O)c(O)c1)C(C)Cc1ccc(O)c(O)c1 (stereo not given) [Masoprocol] | 95.4% | 98.4% | 96.2% | 93.4% | 85.9% | 95.8% | 95.7% | 106% | 95.5% | 94%
15 | CC(C(=O)O)C(=O)O [Methylmalonate] | 98.5% | 94.5% | 101% | 103% | 87.6% | 89.2% | 101% | 106% | 98.2% | 90.3%
16 | COc1c(C)c2c(c(O)c1C/C=C(\C)CCC(=O)O)C(=O)OC2 [Mycophenolic acid] | 112% | 95.7% | 103% | 97.5% | 59.2% | 106% | 93.2% | 108% | 46.8% | 16.9%
17 | C1CCC(C(CC2CCCCN2)C2CCCCC2)CC1.O=C(O)/C=C\C(=O)O (stereo not given) [Perhexiline] | 101% | 93.8% | 100% | 89% | -0.129% | 97.7% | 89.1% | 98% | 97.7% | 12.3%
18 | OCCN1CCN(CCCN2c3ccccc3Sc3ccc(Cl)cc32)CC1 [Perphenazine] | 95.7% | 99.2% | 103% | 99.1% | 50.2% | 105% | 103% | 93.5% | 97.2% | 47.6%
19 | C=CCc1ccc2c(c1O)C(=O)c1ccccc1C2=O [R162] | 101% | 99.1% | 102% | 109% | 109% | 104% | 97.2% | 94.7% | 103% | 88.7%
20 | O=C(c1ccc(OCCN2CCCCC2)cc1)c1c(-c2ccc(O)cc2)sc2cc(O)ccc12 [Raloxifene] | 94.5% | 97% | 96.5% | 105% | 93.5% | 106% | 102% | 94.9% | 95.5% | 87.9%
21 | NC(=O)c1ncn([C@@H]2O[C@H](CO)[C@@H](O)[C@H]2O)n1 [Ribavirin] | 96.5% | 103% | 107% | 107% | 112% | 84.9% | 98.2% | 101% | 110% | 89.8%
22 | Nc1ncnc2c1ncn2[C@@H]1O[C@H](CSCC[C@H](N)C(=O)O)[C@@H](O)[C@H]1O [S-Adenosyl Homocysteine] | 103% | 90.8% | 100% | 98.9% | 111% | 105% | 110% | 100% | 99.4% | 103%
